# What was measured:
# β-galactosidase LacZ = experiment: Activity of β-galactosidase LacZ by Miller's method; type: cell-based, E. coli; details: strain B7; +IPTG, 1 mM; middle-logarithmic phase, M9:LB (9:1) with glucose 0.4%
# Procedure: For the measurement of β-galactosidase activity, the strains were grown to the middle-logarithmic phase in M9:LB (9:1, v/v) medium supplemented with glucose (0.4%, w/v). The medium for the strains having ilvAYC deletion and AHAS-deficient strains was additionally supplemented with Ile (25 mg/1) and Val (25 mg/1). Activity of β-galactosidase was measured according to Miller's method (Miller J. H. (1972) Experiments in molecular genetics. Cold Spring Harbor Laboratory, Cold Spring Harbor). The data presented in Table 2 indicate that expression level of the reporter lacZ gene under PilvC promoter varies within the range of more than two orders of magnitude depending on the genetic background. The maximal expression level was provided by the E. coli strains modified to overexpress L-valine resistant AHAS I (the product of the ilvBN4 genes) or/and containing inactivated the isomeroreductase IlvC encoding gene (ilvC).
# AHAS I = molecular target: T1, AHAS I (Escherichia coli, UniProt P08142+P0ADF8, N17K); experiment: Activity of AHAS I in crude cell extracts with or without addition of 10 mM L-Val; type: biochemical, E. coli
# T1 construct: expressed in transfected cells; host or cells: E. coli K12 B7 (VKPM B-7) ΔilvGM ΔilvIH with a chromosomal ilvBN4 operon under PilvC (or PL); crude cell extracts
# Procedure: Cells were grown to the middle-logarithmic phase in M9:LB (9:1, v/v) medium supplemented with glucose (0.4%, w/v). Activity of AHAS I in crude cells extracts was measured with or without addition of 10 mM L-Val according to the assay described in Stormer F. and Umbarger H., Biochem. Biophys. Res. Commun., 1964, 17(5):587-592.
# T1 sequence (P08142 whole entry): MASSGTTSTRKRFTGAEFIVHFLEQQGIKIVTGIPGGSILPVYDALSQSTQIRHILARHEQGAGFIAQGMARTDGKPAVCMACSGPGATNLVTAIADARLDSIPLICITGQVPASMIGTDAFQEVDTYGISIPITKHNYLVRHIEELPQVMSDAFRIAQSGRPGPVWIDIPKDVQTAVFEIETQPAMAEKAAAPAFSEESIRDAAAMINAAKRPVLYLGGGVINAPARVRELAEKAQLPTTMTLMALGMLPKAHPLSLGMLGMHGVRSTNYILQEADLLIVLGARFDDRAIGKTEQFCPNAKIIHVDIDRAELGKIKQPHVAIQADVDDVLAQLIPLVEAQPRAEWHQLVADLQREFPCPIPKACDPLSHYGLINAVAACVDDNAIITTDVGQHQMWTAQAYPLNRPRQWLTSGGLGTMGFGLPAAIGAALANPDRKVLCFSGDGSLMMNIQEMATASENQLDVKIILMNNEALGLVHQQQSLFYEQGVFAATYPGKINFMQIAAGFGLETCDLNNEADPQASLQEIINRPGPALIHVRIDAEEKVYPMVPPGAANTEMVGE
# T1 sequence (P0ADF8 whole entry N17K): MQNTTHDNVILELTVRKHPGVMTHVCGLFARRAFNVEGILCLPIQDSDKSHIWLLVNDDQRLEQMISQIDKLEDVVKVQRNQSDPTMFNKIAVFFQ
SMILES,Specific activity of β-galactosidase (β-galactosidase LacZ) [Miller's units],"AHAS I activity with L-Val, 10 mM (percent of value, measured without L-Val addition) (AHAS I; crude extract of strain B7 ΔilvGM ΔilvIH PL-ilvBN4 (control)) [%]","AHAS I activity with L-Val, 10 mM (AHAS I; crude extract of strain B7 ΔilvGM ΔilvIH PL-ilvBN4 (control), mean of triplicate) [nmol/min/mg]","AHAS I activity with L-Val, 10 mM (percent of value, measured without L-Val addition) (AHAS I; crude extract of strain B7 ΔilvGM ΔilvIH cat-ilvY-PilvC-ilvBN4 cl.1) [%]","AHAS I activity with L-Val, 10 mM (AHAS I; crude extract of strain B7 ΔilvGM ΔilvIH cat-ilvY-PilvC-ilvBN4 cl.1, mean of triplicate) [nmol/min/mg]","AHAS I activity with L-Val, 10 mM (percent of value, measured without L-Val addition) (AHAS I; crude extract of strain B7 ΔilvGM ΔilvIH cat-ilvY-PilvC-ilvBN4 cl.4) [%]","AHAS I activity with L-Val, 10 mM (AHAS I; crude extract of strain B7 ΔilvGM ΔilvIH cat-ilvY-PilvC-ilvBN4 cl.4, mean of triplicate) [nmol/min/mg]"
CC(C)S[C@@H]1O[C@H](CO)[C@H](O)[C@H](O)[C@H]1O [IPTG],1200,–,–,–,–,–,–
"CC(C)[C@H](N)C(=O)O [L-Val, L-valine]",–,86,51,88,80,88,106

# — patent publication US9574216B2, “Auto-indicible expression system, and the use thereof for producing useful metabolites using a bacterium of the family enterobacteriaceae” (priority 2012, dated 2017)
